In patent US3984470A, “Amidoxime derivatives and process for preparing the same” (priority 1974, dated 1976):

Assays:
[1] = Toxicity, method of KARBER and BEHRENS, rats; conditions: rat, in vivo, rats, after 48 hours
Protocol: (§1) Finally, tests of toxicity were performed with compounds of the invention following the method of KARBER and BEHRENS.

reserpine-induced ptosis = assay: Reserpine-induced ptosis in the rat; format: in vivo, male rats of the CF1 strain; conditions: reserpine 5 mg/kg i.p., score scale 0-4, mean to 6th hour vs controls
Protocol: (§2) The thymoanaleptic properties of the compounds of the invention were determined by means of reserpine-induced ptosis and hypothermia in the rat.
An intraperitoneal dose of 5 mg/kg of reserpine was administered to batches of 5 male rats of the CF1 strain weighing an average of 300 g.
Thirty minutes later a dose of the compound to be studied was given by oral route and the inhibitory effect of the reserpine was noted every hour up to the sixth hour. Ptosis was evaluated for each eye in accordance with the following scale:
4 : eyelids completely closed.
The difference between these two averages represents the average decrease of the ptosis in the treated animals as compared to the controls.

neuromuscular functions = assay: Rotarod test of BOISSIER / neuromuscular functions; format: in vivo, mouse; conditions: up to 40 mg/kg oral, for 3 hours after administration
[2] = tested on: aggressivity of killer rats; assay: Aggressivity of killer rats; format: in vivo, male rats; conditions: for inhibition in vivo at 20 mg/kg: 20 mg/kg i.p.; for inhibition in vivo at 25 mg/kg: 25 mg/kg i.p.; for antiaggressive properties: conclusion from Table V
Description: If, under certain conditions, male rats are kept alone in individual cages for several weeks, the become spontaneously aggressive towards any mouse, which they kill as soon as it is placed in the same cage. Mice were introduced one after another into cages containing an isolated rat and a selection was made of the rats which immediately killed three mice. In this way batches of 6 to 8 rats were constituted. The rats were then given the compound to be studied by intraperitoneal route in such a way that each batch received a higher dose than the preceding batch. […] Table V which follows contains the results obtained 30 minutes after administration of the compound to be studied.

spontaneous motricity = assay: Spontaneous motricity in the mouse; format: in vivo; conditions: 50 mg/kg intragastric, mouse
Protocol: Tests were also performed with a view to determining whether the compounds of the invention modify spontaneous motricity.

toxicity of yohimbine = assay: Potentiation of the toxicity of yohimbine (test of QUINTON); format: in vivo, male mice; conditions: yohimbine hydrochloride 25 mg/kg i.p.; for mortality at 50 mg/kg: Mus musculus, 50 mg/kg oral, mortality after 24 hours
Protocol: Yohimbine is a substance which provokes an increase in the serotonine level in the brain or a decrease in norepinephrine according to the author.
For this purpose, the test of QUINTON was used which is described in Brit. J. Pharmacol. 21, 51 (1963). […] […] The percentage of mortality was noted after 24 hours.
Table III hereunder expresses the percentage of potentiation of the toxicity due to yohimbine in comparison with the controls.
The percentage in question was determined 24 hours after the administration of yohimbine.

[3] = Toxicity, method of KARBER and BEHRENS, mice; conditions: mouse, in vivo, mice, after 48 hours
Protocol: as §1

[4] = tested on: stereotypies induced by amphetamine; assay: Potentiation of the stereotypies induced by amphetamine; format: in vivo, rats
Protocol: It is commonly admitted that amphetamine induces stereotypies by stimulating the dopaminergic receptors and inhibiting the re-uptake of dopamine into the neuron.
The thymoanaleptics potentiate these stereotypies.
Thirty minutes later, a dose of 10 mg/kg of the compound to be tested was given by oral route. Note was taken of the intensity of the stereotypies every 30 minutes for 150 minutes in accordance with the following scale which indicates the behaviour of the animal.
0 : the rat is motionless and asleep
1 : the rat is motionless and awake
3 : the rat stands on its hind paws and sniffs the lid of its cage in a stereotyped manner.
4 : the rat licks the walls of its cage in a stereotyped manner
5 : the rat bites the bars of its cage or sniffs the shavings of its litter in a stereotyped manner
6 : the rat chews the shavings in a stereotyped manner
The average of the 5 results obtained for each batch was calculated and compared with the average obtained with the control animals.
The difference between these averages represents the mean increase of the steroetypies of the treated animals in comparison with the controls.

[5] = tested on: reserpine-induced hypothermia; assay: Reserpine-induced hypothermia in the rat; format: in vivo, male rats CF1; conditions: reserpine 5 mg/kg i.p., mean to 6th hour vs controls
Protocol: as §2
An intraperitoneal dose of 5 mg/kg of reserpine was administered to batches of 5 male rats CF1 weighing an average of 300 g. Thirty minutes later, the rectal temperature was determined and then a dose of the compound to be tested was given by oral route, except to the control animals. The rectal temperature of all the animals including the controls was taken every hour up to the 6th hour.
The difference between these two averages enabled an estimation to be made regarding the antagonistic effect of the compounds of the invention on the hypothermia induced by reserpine.

[6] = tested on: peripheral noradrenergic processes; conditions: intravenous route; cited from earlier work
[7] = tested on: aggressivity of isolated mice; assay: Aggressivity of isolated mice; format: in vivo, male mouse
Protocol: If a male mouse is kept alone in a cage for 3 weeks to 1 month, it will spontanesouly attack any other animal of the same species which is placed in the same cage. If the other animal has also been isolated under the same conditions a series of fights takes place.
Mice were isolated for the period of time required to render them spontaneously aggressive. Couples were then put together and note was taken of the number of fights which took place over a period of 3 minutes. Each batch was composed of four pairs of mice.
The animals of each batch were then treated by intragastric route with the compound to be studied which was administered in such a way that each batch received a higher dose than the preceding batch. […]
The results were expressed in the percentage of decrease in the number of fights between the animals after treatment in comparison with the percentage obtained before treatment which represents the percentage of inhibition of aggressivity.

[8] = tested on: cholinergic effects provoked by tremorine; assay: Cholinolytic properties: action with respect to tremorine; format: in vivo, male mice of the OF1 strain; conditions: 20 mg/kg oral; tremorine 10 mg/kg; difference vs controls
Protocol: When injected into mice, tremorine and its metabolite, oxotremorine, produce central cholinergic effects, i.e. normal and provoked tremor as well as peripheral cholinergic effects i.e. weeping, sweating diarrhoea and salivation.
Male mice of the OF1 strain weighing 22 g, were divided into batches of 10. Each batch with the exception of the control animals, received, by oral route, a dose of the compound to be tested.
Thirty minutes later, 10 mg/kg of tremorine were administered to all the batches and thirty minutes after the injection of tremorine note was taken of the cholinergic effects on each animal in accordance with the following scale: […]

[9] = Rattus norvegicus, ip, 0.5 h, 30 minutes after administration
[10] = 10 mg/kg oral, amphetamine 10 mg/kg i.p., every 30 min for 150 min
[11] = 20 mg/kg, same conditions (amphetamine 10 mg/kg i.p.)

SMILES	Average decrease of Ptosis (reserpine-induced ptosis; 10 mg/kg oral)	mortality at 50 mg/kg (toxicity of yohimbine)	Average increase of the stereotypies [4, 10]	inhibition in vivo at 25 mg/kg [2, 9]	Average inhibition of hypothermia (positive °C) ([5]; 10 mg/kg oral)	further results
CC(Oc1cccc2ccoc12)C(N)=NO (stereo not shown) [Compound 2, 2-(7-Benzofuryloxy)-propionamidoxime]	2.4	50%	9	–	–	LD50 at 48 h ([1]; ip, intraperitoneal): 62.5 mg/kg; LD50 at 48 h ([1]; oral): 440 mg/kg; damage to the neuromuscular functions (neuromuscular functions): did not cause any damage to the neuromuscular functions up to 40 mg/kg; inhibition in vivo at 20 mg/kg [2, 9]: 50%; influence on spontaneous motricity (spontaneous motricity): no influence on the spontaneous motricity; LD50 at 48 h ([3]; ip, intraperitoneal): 68 mg/kg; LD50 at 48 h ([3]; oral): 170 mg/kg; Average increase of the stereotypies ([4]; 0.05 mg/kg intragastric, 150 minutes): 9; Average inhibition of hypothermia (positive °C) ([5]; 100 mg/kg oral): 0.8 °C
CC(Oc1cccc2occc12)C(N)=NO (stereo not shown) [Compound 3, 2-(4-Benzofuryloxy)-propionamidoxime]	2.1	40%	8.6	–	–	inhibition in vivo at 20 mg/kg [2, 9]: 89%; influence on spontaneous motricity (spontaneous motricity): no influence on the spontaneous motricity; LD50 at 48 h ([3]; ip, intraperitoneal): 68 mg/kg; Average inhibition of hypothermia (positive °C) ([5]; 20 mg/kg oral): 1 °C
Cc1oc2cc(OC(C)(C)C(N)=NO)ccc2c1C [Compound 4, 2-(2,3-Dimethyl-6-benzofuryloxy)-2-methyl-propionamidoxime]	2.1	30%	0.8	25%	0.6 °C	–
NC(COc1ccc2occc2c1)=NO [Compound 5, 2-(5-Benzofuryloxy)-acetamidoxime]	1.9	10%	–	60%	0.5 °C	–
NC(CCOc1cccc2ccccc12)=NO [Compound 6, 3-(1-Naphthyloxy)-propionamidoxime]	1.5	30%	–	30%	–	–
NC(CCOc1cccc2ccoc12)=NO [Compound 8, 3-(7-Benzofuryloxy)-propionamidoxime]	1.3	30%	5.6	70%	0.4 °C	influence on spontaneous motricity (spontaneous motricity): no influence on the spontaneous motricity
CC(Oc1cccc2c1OCC2)C(N)=NO (stereo not shown) [Compound 9, 2-(2,3-Dihydro-7-benzofuryloxy)-propionamidoxime]	1.3	10%	6.2	–	0.5 °C	influence on spontaneous motricity (spontaneous motricity): no influence on the spontaneous motricity
CCC(Oc1cccc2c1OCCO2)C(N)=NO (stereo not shown) [Compound 14, 2-[(1,4-Benzodioxanyl)-5-oxy]-butyramidoxime]	0.6	–	4.2	80%	0.4 °C	–
NC(CCOc1ccc2ccccc2c1)=NO [Compound 18, 3-(2-Naphthyloxy)-propionamidoxime]	0.4	10%	–	100%	–	antiaggressive properties [2]: powerful antiaggressive properties
NC(COc1cccc2sccc12)=NO [Compound 26, 2-(4-Benzothienyloxy)-acetamidoxime]	–	–	–	27%	–	Average decrease of Ptosis (reserpine-induced ptosis; 20 mg/kg oral): 1.4; Potentiation of the toxicity of yohimbine (toxicity of yohimbine; 20 mg/kg oral, 24 hours): 50%; Mean increase of the stereotypies ([4]; 20 mg/kg oral, 5 mg/kg of amphetamine): 6.8
CC(C)(Oc1cccc2ccoc12)C(N)=NO [Compound 30, 2-(7-Benzofuryloxy)-2-methyl-propionamidoxime]	–	–	–	–	–	Average decrease of Ptosis (reserpine-induced ptosis; 100 mg/kg oral): 2.3; inhibition in vivo at 20 mg/kg [2, 9]: 75%; Average increase of the stereotypies [4, 11]: 6.5; Average inhibition of hypothermia (positive °C) ([5]; 100 mg/kg oral): 1 °C
CCC(Oc1cccc2ccccc12)C(N)=NO (stereo not shown) [Compound 34]	–	10%	–	–	1.1 °C	inhibition in vivo at 1 mg/kg ([2]; Rattus norvegicus, ip, 0.5 h, 1 mg/kg i.p., 30 minutes after administration): 100%; antiaggressive properties [2]: powerful antiaggressive properties
CCc1oc2ccccc2c1OC(C)(C)C(N)=NO [Compound 46, 2-(2-Ethyl-3-benzofuryloxy)-2-methyl-propionamidoxime]	–	10%	6.6	100%	–	–
CN(C)CCCN1c2ccccc2CCc2ccccc21 [imipramine, 5-(3-dimethylaminopropyl)-10,11-dihydro-5H-dibenz [b,f] azepine, reference compound]	–	50%	–	–	0.4 °C	dose potentiating the peripheral effects of exogenous norepinephrine [6]: ≥ 1 mg/kg; Average decrease of Ptosis (reserpine-induced ptosis; 20 mg/kg oral): 1.6; inhibition of aggressivity ([7]; 20 mg/kg): 78%; dose of imipramine giving the same activity as Compound 1 ([7]; relative to 0.42 mg/kg of Compound 1, intragastric, 90 minutes): twenty-times greater; inhibition in vivo at 20 mg/kg [2, 9]: 45%; Central response tremor: Normal [8]: -4; Central response tremor: Provoked [8]: -0.4; Peripheral cholinergic response: Salivat. [8]: 0; Peripheral cholinergic response: Sweating [8]: -2; Peripheral cholinergic response: Weeping [8]: -0.8; Average increase of the stereotypies ([4]; 5 mg/kg, same conditions (intragastric), 150 minutes): 4.4; Average increase of the stereotypies [4, 11]: 6
